Experimental data reported in patent US20240246977A1, “DEGRADATION OF BRUTON'S TYROSINE KINASE (BTK) BY CONJUGATION OF BTK INHIBITORS WITH E3 LIGASE LIGAND AND METHOD OF USE” (BeiGene Switzerland GmbH, priority 2021, published 2024).
pIC50: −log10 of the molar value.

Key:
BTK = BTK (Homo sapiens, UniProt Q06187); experiment: BTK cell degradation in TMD-8 cells, HTRF assay; assay type: cell-based; set-up: endogenous in cells; host or cells: TMD-8 cells; details: 6 h treatment, IC50 (DC50) of BTK degradation
BTK, sequence (Q06187 whole entry): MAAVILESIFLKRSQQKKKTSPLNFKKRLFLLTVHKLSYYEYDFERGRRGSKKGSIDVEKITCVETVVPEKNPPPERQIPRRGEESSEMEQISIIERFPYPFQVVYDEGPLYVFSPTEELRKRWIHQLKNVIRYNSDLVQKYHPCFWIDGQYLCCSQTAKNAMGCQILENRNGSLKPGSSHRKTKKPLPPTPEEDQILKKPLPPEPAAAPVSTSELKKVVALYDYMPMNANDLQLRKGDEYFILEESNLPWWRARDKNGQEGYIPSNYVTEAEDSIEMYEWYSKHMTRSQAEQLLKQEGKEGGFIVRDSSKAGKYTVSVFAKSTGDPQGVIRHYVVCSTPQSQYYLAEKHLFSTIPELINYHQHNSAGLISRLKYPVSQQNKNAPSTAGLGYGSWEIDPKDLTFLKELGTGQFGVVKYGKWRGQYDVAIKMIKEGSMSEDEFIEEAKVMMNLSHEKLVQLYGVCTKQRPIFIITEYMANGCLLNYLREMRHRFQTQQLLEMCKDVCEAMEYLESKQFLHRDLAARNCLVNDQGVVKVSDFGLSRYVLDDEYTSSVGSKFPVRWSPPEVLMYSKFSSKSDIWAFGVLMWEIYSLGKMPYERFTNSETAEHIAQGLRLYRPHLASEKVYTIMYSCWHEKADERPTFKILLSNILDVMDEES
Method in brief: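 BTK levels read by HTRF in lysates of TMD-8 cells exposed to compounds for 6 h, eight concentrations at 6-fold steps in 0.2% DMSO. Percent degradation versus DMSO and low controls was fitted with a four-parameter equation to give DC50; Dmax is maximal degradation.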

HEK-293 cells = experiment: HEK-293 cytotoxicity detection (CellTiter-Glo); assay type: cell-based; details: Homo sapiens, 72 h, 72 h incubation, CellTiter-Glo luminescence, read-out: HEK293
Method in brief: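 HEK-293 cells exposed 72 h to 8 compounds doses (4-fold dilutions, top stock 5 mM at 500×) in 0.2% DMSO. Viability by CellTiter-Glo luminescence; inhibition normalised to DMSO high control and low control, IC50 from four-parameter curve fit.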

Row | SMILES | DC50 (BTK) [nM] | pIC50 (HEK-293 cells)
1 | Cc1c(C(=O)Nc2cc(N3CCCC3)ccn2)ccc(-c2nn3c(c2C(N)=O)Nc2ccc(N4CCN(CC5CCN(c6ccc(N7CCC(=O)NC7=O)cc6)CC5)CC4)cc2CC3)c1F [Example B49, 7-(4-((1-(4-(2,4-dioxotetrahydropyrimidin-1(2H)-yl)phenyl)piperidin-4-yl)methyl)piperazin-1-yl)-2-(2-fluoro-3-methyl-4-((4-(pyrrolidin-1-yl)pyridin-2-yl)carbamoyl)phenyl)-9,10-dihydro-4H-benzo[d]pyrazolo[1,5-a][1,3]diazepine-3-carboxamide] | 13.5 | < 5.00
2 | CCOc1ccnc(NC(=O)c2ccc(-c3nn4c(c3C(N)=O)Nc3ccc(N5CCN(CC6CCN(c7ccc(N8CCC(=O)NC8=O)cc7)CC6)CC5)cc3CC4)c(F)c2C)c1 [Example B51, 7-(4-((1-(4-(2,4-dioxotetrahydropyrimidin-1(2H)-yl)phenyl)piperidin-4-yl)methyl)piperazin-1-yl)-2-(4-((4-ethoxypyridin-2-yl)carbamoyl)-2-fluoro-3-methylphenyl)-9,10-dihydro-4H-benzo[d]pyrazolo[1,5-a][1,3]diazepine-3-carboxamide] | 7.39 | 6.54
3 | Cc1nc(NC(=O)c2ccc(-c3nn4c(c3C(N)=O)Nc3ccc(N5CCN(CC6CN(c7ccc(N8CCC(=O)NC8=O)cc7)C6)CC5)cc3CC4)c(F)c2C)ccc1Cl [Example B53, 2-(4-((5-chloro-6-methylpyridin-2-yl)carbamoyl)-2-fluoro-3-methylphenyl)-7-(4-((1-(4-(2,4-dioxotetrahydropyrimidin-1(2H)-yl)phenyl)azetidin-3-yl)methyl)piperazin-1-yl)-9,10-dihydro-4H-benzo[d]pyrazolo[1,5-a][1,3]diazepine-3-carboxamide] | 18.6 | < 5.00
4 | Cc1cccc(NC(=O)c2ccc(-c3nn4c(c3C(N)=O)Nc3ccc(N5CCN(CC6CCN(c7cc8c(cc7F)C(=O)N(C7CCC(=O)NC7=O)C8=O)CC6)CC5)cc3CC4)c(F)c2C)n1 (centres unmarked) [Example B55, 7-(4-((1-(2-(2,6-dioxopiperidin-3-yl)-6-fluoro-1,3-dioxoisoindolin-5-yl)piperidin-4-yl)methyl)piperazin-1-yl)-2-(2-fluoro-3-methyl-4-((6-methylpyridin-2-yl)carbamoyl)phenyl)-9,10-dihydro-4H-benzo[d]pyrazolo[1,5-a][1,3]diazepine-3-carboxamide] | 2.42 | < 5.00
5 | Cc1cccc(NC(=O)c2ccc(-c3nn4c(c3C(N)=O)Nc3ccc(N5CCN(Cc6ccc7c(c6)C(C)(C)C(=O)N7C6CCC(=O)NC6=O)CC5)cc3CC4)c(F)c2C)n1 (centres unmarked) [Example B60, 7-(4-((1-(2,6-dioxopiperidin-3-yl)-3,3-dimethyl-2-oxoindolin-5-yl)methyl)piperazin-1-yl)-2-(2-fluoro-3-methyl-4-((6-methylpyridin-2-yl)carbamoyl)phenyl)-9,10-dihydro-4H-benzo[d]pyrazolo[1,5-a][1,3]diazepine-3-carboxamide] | 4.97 | < 5.00
6 | Cc1cccc(NC(=O)c2ccc(-c3nn4c(c3C(N)=O)Nc3ccc(N5CCN(CCc6cccc7c6oc(=O)n7C6CCC(=O)NC6=O)CC5)cc3CC4)c(F)c2C)n1 (centres unmarked) [Example B61, 7-(4-(2-(3-(2,6-dioxopiperidin-3-yl)-2-oxo-2,3-dihydrobenzo[d]oxazol-7-yl)ethyl)piperazin-1-yl)-2-(2-fluoro-3-methyl-4-((6-methylpyridin-2-yl)carbamoyl)phenyl)-9,10-dihydro-4H-benzo[d]pyrazolo[1,5-a][1,3]diazepine-3-carboxamide] | 1.09 | < 5.00

Further lines, with some results ahead:

Row | DC50 (BTK) [nM] | SMILES | pIC50 (HEK-293 cells)
7 | 2.16 | COc1ccnc(NC(=O)c2ccc(-c3nn4c(c3C(N)=O)Nc3ccc(N5CCN(CC6CCN(c7ccc(N8CCC(=O)NC8=O)cc7)CC6)CC5)cc3CC4)c(F)c2C)c1 [Example B50, 7-(4-((1-(4-(2,4-dioxotetrahydropyrimidin-1(2H)-yl)phenyl)piperidin-4-yl)methyl)piperazin-1-yl)-2-(2-fluoro-4-((4-methoxypyridin-2-yl)carbamoyl)-3-methylphenyl)-9,10-dihydro-4H-benzo[d]pyrazolo[1,5-a][1,3]diazepine-3-carboxamide] | < 5.00
8 | 4.06 | Cc1nc(NC(=O)c2ccc(-c3nn4c(c3C(N)=O)Nc3ccc(N5CCN(CC6CCN(c7ccc(N8CCC(=O)NC8=O)cc7)CC6)CC5)nc3CC4)c(F)c2C)ccc1Cl [Example B52, 2-(4-((5-chloro-6-methylpyridin-2-yl)carbamoyl)-2-fluoro-3-methylphenyl)-7-(4-((1-(4-(2,4-dioxotetrahydropyrimidin-1(2H)-yl)phenyl)piperidin-4-yl)methyl)piperazin-1-yl)-9,10-dihydro-4H-pyrazolo[1,5-a]pyrido[3,2-d][1,3]diazepine-3-carboxamide] | < 5.00
9 | 3.75 | Cc1cccc(NC(=O)c2ccc(-c3nn4c(c3C(N)=O)Nc3ccc(N5CCN(CC6CCN(c7ccc(N8CCC(=O)NC8=O)c(C)c7)CC6)CC5)cc3CC4)c(F)c2C)n1 [Example B54, 7-(4-((1-(4-(2,4-dioxotetrahydropyrimidin-1(2H)-yl)-3-methylphenyl)piperidin-4-yl)methyl)piperazin-1-yl)-2-(2-fluoro-3-methyl-4-((6-methylpyridin-2-yl)carbamoyl)phenyl)-9,10-dihydro-4H-benzo[d]pyrazolo[1,5-a][1,3]diazepine-3-carboxamide] | < 5.00
10 | 4.31 | Cc1cccc(NC(=O)c2ccc(-c3nn4c(c3C(N)=O)Nc3ccc(N5CCN(CC6CCN(c7cc8c(cc7F)CN(C7CCC(=O)NC7=O)C8=O)CC6)CC5)cc3CC4)c(F)c2C)n1 (centres unmarked) [Example B56, 7-(4-((1-(2-(2,6-dioxopiperidin-3-yl)-6-fluoro-3-oxoisoindolin-5-yl)piperidin-4-yl)methyl)piperazin-1-yl)-2-(2-fluoro-3-methyl-4-((6-methylpyridin-2-yl)carbamoyl)phenyl)-9,10-dihydro-4H-benzo[d]pyrazolo[1,5-a][1,3]diazepine-3-carboxamide] | < 5.00
11 | 0.526 | Cc1cccc(NC(=O)c2ccc(-c3nn4c(c3C(N)=O)Nc3ccc(N5CCN(C6CN(C7CN(c8ccc9c(c8)C(=O)N(C8CCC(=O)NC8=O)C9=O)C7)C6)CC5)cc3CC4)c(F)c2C)n1 (centres unmarked) [Example B57, 7-(4-(1′-(2-(2,6-dioxopiperidin-3-yl)-1,3-dioxoisoindolin-5-yl)-[1,3′-biazetidin]-3-yl)piperazin-1-yl)-2-(2-fluoro-3-methyl-4-((6-methylpyridin-2-yl)carbamoyl)phenyl)-9,10-dihydro-4H-benzo[d]pyrazolo[1,5-a][1,3]diazepine-3-carboxamide] | < 5.00
12 | 2.01 | Cc1cccc(NC(=O)c2ccc(-c3nn4c(c3C(N)=O)Nc3ccc(N5CCN(CC6CCN(c7ccc8c(c7)CN(C7CCC(=O)NC7=O)C8=O)CC6)CC5)cc3CC4)c(F)c2C)n1 (centres unmarked) [Example B58, 7-(4-((1-(2-(2,6-dioxopiperidin-3-yl)-1-oxoisoindolin-5-yl)piperidin-4-yl)methyl)piperazin-1-yl)-2-(2-fluoro-3-methyl-4-((6-methylpyridin-2-yl)carbamoyl)phenyl)-9,10-dihydro-4H-benzo[d]pyrazolo[1,5-a][1,3]diazepine-3-carboxamide] | < 5.00
13 | 1.47 | Cc1cccc(NC(=O)c2ccc(-c3nn4c(c3C(N)=O)Nc3ccc(N5CCN(CC6CN(c7ccc(N8CCC(=O)NC8=O)cc7)C6)CC5)cc3CC4)c(F)c2C)n1 [Example B59, 7-(4-((1-(4-(2,4-dioxotetrahydropyrimidin-1(2H)-yl)phenyl)azetidin-3-yl)methyl)piperazin-1-yl)-2-(2-fluoro-3-methyl-4-((6-methylpyridin-2-yl)carbamoyl)phenyl)-9,10-dihydro-4H-benzo[d]pyrazolo[1,5-a][1,3]diazepine-3-carboxamide] | < 5.00
14 | 1.7 | Cc1cccc(NC(=O)c2ccc(-c3nn4c(c3C(N)=O)Nc3ccc(N5CCN(CCc6cc(F)c(C7CCC(=O)NC7=O)c(F)c6)CC5)cc3CC4)c(F)c2C)n1 (centres unmarked) [Example B62, 7-(4-(4-(2,6-dioxopiperidin-3-yl)-3,5-difluorophenethyl)piperazin-1-yl)-2-(2-fluoro-3-methyl-4-((6-methylpyridin-2-yl)carbamoyl)phenyl)-9,10-dihydro-4H-benzo[d]pyrazolo[1,5-a] [1,3]diazepine-3-carboxamide] | < 5.00
15 | 2.32 | Cc1cccc(NC(=O)c2ccc(-c3nn4c(c3C(N)=O)Nc3ccc(N5CCN(CCc6cc(F)c([C@H]7CCC(=O)NC7=O)c(F)c6)CC5)cc3CC4)c(F)c2C)n1 [Example B63, (R)-7-(4-(4-(2,6-dioxopiperidin-3-yl)-3,5-difluorophenethyl)piperazin-1-yl)-2-(2-fluoro-3-methyl-4-((6-methylpyridin-2-yl)carbamoyl)phenyl)-9,10-dihydro-4H-benzo[d]pyrazolo[1,5-a][1,3]diazepine-3-carboxamide] | < 5.00
16 | 4.85 | Cc1cccc(NC(=O)c2ccc(-c3nn4c(c3C(N)=O)Nc3ccc(N5CCN(C6CC(c7ccc(N8CCC(=O)NC8=O)cc7)C6)CC5)cc3CC4)c(F)c2C)n1 (centres unmarked) [Example B64, 7-(4-(3-(4-(2,4-dioxotetrahydropyrimidin-1(2H)-yl)phenyl)cyclobutyl)piperazin-1-yl)-2-(2-fluoro-3-methyl-4-((6-methylpyridin-2-yl)carbamoyl)phenyl)-9,10-dihydro-4H-benzo[d]pyrazolo[1,5-a][1,3]diazepine-3-carboxamide] | < 5.00
